The source of these data is US10487054B2, “Therapeutic compounds” (REGENTS OF THE UNIVERSITY OF MINNESOTA, priority 2017, dated 2019).

One data set has as its system MEK1/2. The experiment in a line: Pull-down assay with HaCaT cell lysates. The conditions noted are these: HaCaT cell lysates 500 μg, Western blot. The class given is binding, human. The protocol:
Active TOPK (200 ng) was incubated with different concentrations of ATP (0, 10 or 100 μM) and then mixed with compound 1-conjugated Sepharose 4B beads or Sepharose 4B beads. Proteins were pulled down and analyzed by Western blot. Data are representative of 3 independent experiments that gave similar results. FIGS. 2C and 2D show compound 1 binds to either TOPK (2C) or MEK1/2 (2D) ex vivo. Lysates from HaCaT cells (500 μg) were incubated with compound 1-conjugated Sepharose 4B beads or Sepharose 4B beads alone and the pulled-down proteins were analyzed by Western blot. Data are representative of 3 independent experiments that gave similar results. FIGS. 2E and 2F show compound 1 inhibits TOPK kinase (2E) activity but not MEK1 kinase (2F) activity in vitro. Active TOPK (200 ng) was mixed with compound 1 (0, 0.5, 1, 3, or 5 μM) or HI-032 (TOPK inhibitor, 10 μM) and then incubated with a [γ-^32P] ATP mixture. Similarly, MEK1 (200 ng) was mixed with compound 1 (0, 0.5, 1, 3, 5, or 10 μM) or PD098059 (MEK1 inhibitor, 5 μM) and then incubated with a [γ-^32P] ATP mixture. For 2E and 2F, the results are visualized by autoradiography and Coomassie blue staining serves as a loading control. Data are representative of 3 independent experiments that gave similar results. […]

Another data set concerns SKH-1 hairless mice. The experiment in a line: SUV-induced mouse skin tumorigenesis, late-stage prevention model. The class given is in vivo. The method, then: Tumor volume was calculated according to the following formula: tumor volume (mm^3)=length×width×height×0.52. […] For 5B and 5C, data are represented as mean values±S.D. and differences were determined by one-way ANOVA. The asterisk (*) indicates a significant decrease compared to the group exposed to SUV only or the group treated with vehicle followed by SUV (***, p<0.001). […] Dorsal trunk skin samples were harvested and stained with H&E (left panels) or with an antibody to detect PCNA (right panels). […] Expression of PCNA was quantified using Image-Pro Plus software and stained cells were counted from 5 separate areas on each slide (lower panel). An average of 3 samples was calculated per group. Data are expressed as mean percent of control±S.D. and the asterisks indicate a significant difference in PCNA expression (***, p<0.001). […] The expression levels of phosphorylated and total proteins were analyzed by Western blot.
Mice were weighed once a week until week 28. […] SKH-1 hairless mice were treated as described in Materials and Methods. The mice in the control groups (n=9) received no vehicle/no SUV (n=3), vehicle/no SUV (n=3), or 1 mg compound 1/no SUV (n=3), respectively. The mice in the rest of the groups received SUV irradiation for 15 weeks 3 times a week. The mice in the vehicle/SUV-treated group (n=12) were treated with oil-in-water emulsion cream 3 times a week until the end of the experiment (28 weeks). The mice in the 0.1 mg/SUV or 1 mg/SUV groups (n=12 each) received treatment with compound 1 (0.1 or 1 mg, respectively) 3 times a week until the end of the experiment (28 weeks). The respective doses of oil-in-water emulsion cream or compound 1 were applied topically to the dorsal area. Tumor incidence and multiplicity were recorded weekly until the end of the experiment at week 28.
Female SKH-1 hairless mice were purchased from Charles River and were acclimated for 2 weeks before the study and had free access to food and water. All animals were maintained according to the guidelines approved by the University of Minnesota Institutional Animal Care and Use Committee (IACUC). The animals were housed in climate-controlled quarters with a 12-h light/dark cycle. The skin carcinogenesis experiments were conducted using 6-8 wk old mice with a mean body weight of 25 g. Skin carcinogenesis was induced by a solar simulated ultraviolet irradiation system. The SUV irradiation source (Q-Lab Corporation, Westlake, Ohio) emitted at wavelengths of 295 to 365 nm and the peak emission was 340 nm.
For the late-stage prevention model, the control and experimental groups were identical to those for the early prevention model. However, the experimental groups of mice were exposed to SUV irradiation 3 times a week for 15 weeks without application of vehicle or compound 1 in vehicle. At the end of 15 weeks, SUV exposure was stopped and application of vehicle with or without compound 1 was begun and continued for 13 weeks until week 28 at which time the study was discontinued and mice euthanized and tissues harvested.
At week 1, mice were irradiated with SUV at a dose of 36 kJ/m^2 UVA and 1.8 kJ/m^2 UVB. At week 6, the dose of SUV reached 60 kJ/m^2 UVA and 2.9 kJ/m^2 UVB and this dose was maintained from week 6 to week 15. The respective doses of vehicle or compound 1 were applied topically to the dorsal area. Mice were weighed and tumors were measured once a week until week 28 or when tumor load reached 1 cm^3 total volume. At that time mice were euthanized and one-half of each sample was immediately fixed in 10% formalin and processed for hematoxylin and eosin (H&E) staining and immunohistochemistry. The other one-half of the sample was frozen and used for Western blot analysis.
Skin tissues were embedded in paraffin and subjected to immunohistochemistry. Tissues were de-paraffinized and hydrated and then permeabilized with 0.5% Triton X-100/1×PBS for 10 min. […]

[1] abbreviates: late-stage model, topical 0.1 or 1 mg, vs vehicle-treated group, 28 weeks.

Consider `O=C1Nc2ccc(C34CC5CC(CC(C5)C3)C4)cc2C1=NO` [compound 1, 5-(adamantan-1-yl)-3-(hydroxyimino)indolin-2-one], for which the “binding of MEK1/2 to compound-conjugated beads” value with MEK1/2 is “detected in the compound 1-conjugated beads group but not in the beads only group”. Besides, in the data set with SKH-1 hairless mice (late-stage model, H&E), the epidermal thickness result is recorded as “dramatically decreased” and the “formation of SCCs” value is recorded as “inhibited”. For the same compound, in the data set on SKH-1 hairless mice (late-stage model, Western blot), the “SUV-induced phosphorylation of ERK1/2, p38, and JNKs in mouse skin” value is “dramatically suppressed”. The “expression of PCNA” value in the data set on SKH-1 hairless mice (late-stage model, immunohistochemistry of skin) is recorded as “decreased”. Besides, in the data set on SKH-1 hairless mice (setting [1]), the tumor multiplicity entry is given as “significantly reduced” and the tumor volume result is reported as “significantly reduced”. Also, the malignancy rate entry with SKH-1 hairless mice (late-stage model, vs vehicle-treated mice) was “significantly decreased”. In addition, the SUV-induced tumor incidence entry in the data set with SKH-1 hairless mice (late-stage prevention group) was “substantial suppression”. For the same compound, in the data set on SKH-1 hairless mice (topical application on dorsal skin, late-stage model, to week 28), the body weight entry is “no effect on body weight”.
